From PubChem BioAssay AID504322 (Emory University Molecular Libraries Screening Center, 2011)
The source made the active and inactive calls. The rule behind the calls is not given here.

Tested on: CHOP reporter cell assay, percent of control
Assay: CHOP reporter inhibitor potency, dose response, cell-based (AID 504322);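 note: CHO cells carrying a CHOP reporter stimulated with tunicamycin to induce ER stress; potency is for inhibition of the stress-induced reporter signal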

Compound | IC50
COc1ccc(Cn2c(SCc3cc(C)ccc3C)nc3cc(OC)c(OC)cc3c2=N)cc1 | 3.55 µM (inactive)
C=C(C)C(=O)OC1(C(F)(F)F)Oc2cc(C)ccc2NC1=O (stereo unspecified) | 5.82 µM (inactive)
Nc1c(N(C(=O)Nc2ccc(Cl)c(Cl)c2)C2CCCC2)c(=O)[nH]c(=O)n1Cc1ccccc1 | > 10 µM (inactive)
C=CCc1cc(C)ccc1OCC(O)CN1CCN(c2ccccc2)CC1 (stereo unspecified) | 3.94 µM (inactive)
CN(C)c1ccc(/C=C/c2ccc3c4ccccc4ccc3[n+]2-c2ccccc2)cc1 | 1.14 µM (inactive)
CCCCn1c(NS(=O)(=O)c2ccc(C)cc2)c(S(=O)(=O)c2ccccc2)c2nc3ccccc3nc21 | > 10 µM (inactive)
Cc1ccc(NC(=O)c2ccc(C#CC3(O)CCCCC3)cc2)cc1C | > 10 µM (inactive)
Cc1ccc(NC(=O)c2cc3ccccc3oc2=O)cc1S(=O)(=O)N(C)C | < 0.16 µM
O=C(NCc1nc(-c2ccc(C(F)(F)F)cc2)no1)Nc1ccc(OC(F)(F)F)cc1 | 2.03 µM
Cc1ccc(NC(=O)CCl)cc1S(=O)(=O)N1CCCCCC1 | > 10 µM (inactive)
O=C(NC(Nc1nc2ccc([N+](=O)[O-])cc2s1)(C(F)(F)F)C(F)(F)F)c1ccccc1Cl | 0.87 µM
CCOc1cc(C)c(-c2onc(C(F)(F)F)c2-c2csc(C)n2)c(O)c1 | > 10 µM (inactive)
OC(COCC(F)(F)C(F)(F)C(F)(F)C(F)F)Cn1c2ccccc2c2ccccc21 (stereo unspecified) | 2.39 µM
COc1ccc(-c2nc(NC(=O)Cn3ccc(C(F)(F)F)n3)sc2C)cc1 | > 10 µM (inactive)
Cc1nc2ccccn2c1C(=O)N=Nc1c(O)n(CCC(C)C)c2ccccc12 | > 10 µM (inactive)
Oc1ccc(/C=N/Nc2nc(-c3ccc(Cl)cc3)cc(C(F)(F)F)n2)cc1 | 5.8 µM (inactive)
CCC(C)Sc1nc2c(c(=O)[nH]c(=O)n2C)n1Cc1ccc(Cl)cc1 (stereo unspecified) | > 10 µM (inactive)
Cc1cccc(N2CCN(C(=O)c3c(C)nn(Cc4ccccc4Cl)c3C)CC2)c1C | 9.26 µM (inactive)
CCCCCCCCCCCCCCCCn1cc[n+](C)c1 | 0.86 µM (inactive)
Cc1cccc(/C=C2/S/C(=N/N=C3\CC4CCC3(C)C4(C)C)NC2=O)c1 (stereo unspecified) | 4.97 µM (inactive)
C/C(N)=C(/C#N)C(=O)COC(=O)C1CCC(C(C)(C)C)CC1 (stereo unspecified) | 2.41 µM
COc1cc(/C=N/NC(=O)Nc2ccccc2)ccc1OCCOc1ccccc1C | 9.34 µM (inactive)
O=C(NNc1ccccc1Br)C(O)(c1cccc(C(F)(F)F)c1)c1cccc(C(F)(F)F)c1 | 2.14 µM
CCOc1cc(/C=C2/C(=O)ON=C2C)ccc1OCc1ccccc1F | 9.48 µM (inactive)

Compound | IC50
COc1ccc(-c2cnc(OC(C)(C)C)nc2OC(C)(C)C)cc1OC | 4.6 µM (inactive)
CCc1ccc(OCC(=O)NC(NC(=S)Nc2ccc(C)cc2C)C(Cl)(Cl)Cl)cc1 (stereo unspecified) | 8.46 µM (inactive)
CCCOc1ccc(N2C(=O)CC(SC(=NCC)Nc3cccc(F)c3)C2=O)cc1 (stereo unspecified) | 8.9 µM (inactive)
Cc1cc(O)c(NC(=S)NC(=O)c2ccc(-c3ccc(Cl)cc3)o2)cc1C | < 0.16 µM
COc1ccccc1C(=O)NC(=Nc1nc2ccccc2o1)NC(=O)c1ccccc1OC | 9.43 µM (inactive)
CCN1CCN(Cc2ccc(NC(=O)c3ccc(C)c(NC(=O)c4c[nH]c5cc(C(F)(F)F)ccc5c4=O)c3)cc2C(F)(F)F)CC1 | 4.74 µM
CCOc1ccc(-n2c(SCC(=O)Nc3ccc(Br)cc3)nc3n[nH]c(C)c3c2=N)cc1 | 8.02 µM (inactive)
CC1=CC(C)(C)N2C(=O)C3(SCC(=O)N3c3ccc(F)cc3)c3cc(C)cc1c32 (stereo unspecified) | > 10 µM (inactive)
Fc1ccc(Nc2nc(NCc3ccco3)c3ccccc3n2)cc1 | > 10 µM (inactive)
CCCc1cc(=O)[nH]c(Nc2ccc(N3CCCCC3)cc2)n1 | 7.76 µM (inactive)
O=C(Nc1ccc(Cl)c(C(F)(F)F)c1)NC1CC2CCCC(C1)N2Cc1ccccc1 (stereo unspecified) | 7.84 µM (inactive)
NC(=O)CC(NC(=O)Cc1cccc2ccccc12)c1ccc(NCc2ccc(F)cc2)c([N+](=O)[O-])c1 (stereo unspecified) | > 10 µM (inactive)
CCc1ccc(OCC(=O)NC(NC(=S)Nc2ccccc2)C(Cl)(Cl)Cl)cc1 (stereo unspecified) | 8.12 µM (inactive)
O=C(N/N=C/c1cccs1)c1cccc(NC(=O)c2ccc(Cl)cc2)c1 | 4.15 µM
CC(C)(C)c1ccc(Oc2ccc(N)cc2)cc1 | < 0.16 µM (inactive)
CCCCC(CC)Cn1c2nc3ccccc3nc2c2c(=N)oc(C)nc21 (stereo unspecified) | 7.13 µM (inactive)
COc1ccc(Cn2c(C)c(C)c(C#N)c2NC(=O)Nc2ccc(Cl)cc2)cc1 | 7.29 µM (inactive)
CC1=C(C)/C(=N\OS(=O)(=O)c2ccccc2)C=CC1=O | 2.13 µM
O=Nc1ccc(O)c2ncccc12 | 8.83 µM (inactive)
Cc1ccc(S(=O)(=O)Nc2ccc(NC(=O)Nc3cccc(C(F)(F)F)c3)cc2)cc1 | 9.48 µM (inactive)
CS(=O)(=O)c1ncc(Cl)c(C(=O)Nc2ccc(N3CCOCC3)cc2)n1 | > 10 µM (inactive)
C=CCOC(=O)C1=C(C)NC(SCC(=O)Nc2nccs2)=C(C#N)C1c1ccc(Cl)cc1 (stereo unspecified) | 9.67 µM (inactive)
Cc1ccccc1CS(=O)(=O)c1nnc([C@H](CC(C)C)NC(=O)OC(C)(C)C)o1 | 4.63 µM
O=C(CCl)Nc1cc(-c2ccccc2)nn1-c1ccccc1 | 9.78 µM (inactive)

Compound | IC50
O=C(Nc1ccc(C(O)(C(F)(F)F)C(F)(F)F)cc1)c1ccc(Cl)c([N+](=O)[O-])c1 | 4.58 µM (inactive)
S=C(Nc1ccccc1)Nc1ccc(OCc2ccc(Cl)cc2Cl)cc1 | 0.33 µM
CCCOC(=O)c1ccc(Oc2cn[nH]c2-c2ccc(OCC)cc2O)cc1 | 9.56 µM (inactive)
Cc1ccc(Nc2nc(N)c([N+](=O)[O-])c(N3CCC(C)CC3)n2)cc1C | 5.69 µM (inactive)
CCN1/C(=C\C=C\C2=[N+](CC)c3ccccc3C2(C)C)C(C)(C)c2ccccc21 | 0.32 µM (inactive)
Cc1ccc(S(=O)(=O)CC#CCOC(=O)c2ccc([N+](=O)[O-])cc2)cc1 | > 10 µM (inactive)
CCN(CC)S(=O)(=O)c1cccc(NC(=O)Nc2cccc(C(F)(F)F)c2)c1 | 8.55 µM (inactive)
O=C(Nc1ccc(C(F)(F)F)cc1)c1cc(-c2cccnc2)nc2ccc(Br)cc12 | 3.59 µM
CC1(C)C[C@H]2C=C(C=O)[C@]3(C=O)C[C@]3(C)[C@H]2C1 | 0.85 µM
Cc1ccc(C(=O)CC(=O)c2cc(Cl)ccc2O)cc1 | 5.51 µM (inactive)
OCCCNc1cc(-c2ccnc(Nc3cccc(Cl)c3)n2)ccn1 | < 0.16 µM
O=C(c1nnsc1S(=O)(=O)c1ccc(Cl)cc1)N1CCOCC1 | 9.43 µM (inactive)
CC(C)(C)C1CCC(C(=O)OCC(=O)c2ccc[nH]2)CC1 (stereo unspecified) | 6.04 µM (inactive)
COC(=O)C(O)(c1ccc(NC(=S)NC(=O)c2ccc(Cl)cc2Cl)c(C)c1)C(F)(F)F (stereo unspecified) | 9.05 µM (inactive)
CC(C)(C)c1ccc(OCCNC(=S)Nc2ccccc2)cc1 | > 10 µM (inactive)
CCOc1cc(/C=N/NC(=O)COc2cccc(C)c2)ccc1OC(=O)c1cccs1 | > 10 µM (inactive)
CCOC(=O)c1c(C(C)(C)C)oc2ccc(O)cc12 | 9.38 µM (inactive)
CCCCn1c(=O)[nH]c(=O)c2c1nc(-c1ccc(OCCC)c(OCC)c1)n2C | > 10 µM (inactive)
CC(C)(C)OC(=O)CNC(=O)c1[nH]cnc1C(=O)Nc1ccc(Cl)cc1 | 4.69 µM (inactive)
N#CC1=C(N)N2C(=C(C#N)C1c1cccc(Br)c1)Nc1ccccc12 (stereo unspecified) | 5.07 µM (inactive)
O=C(Nc1cccc(F)c1)N(Cc1ccc(Cl)cc1)CC(O)C(F)(F)F (stereo unspecified) | 3.58 µM
C=C(C)COc1ccc(-c2n[nH]c(C)c2-c2ccccc2OC)c(O)c1 | > 10 µM (inactive)
CC(C)CCSc1nc2c(c(=O)[nH]c(=O)n2C)n1CCCc1ccccc1 | 5.19 µM
CCc1ccc(-c2cc(C(=O)N3N=C(C(F)F)CC3(O)C(F)F)c3ccccc3n2)cc1 (stereo unspecified) | 5.26 µM (inactive)

Compound | IC50
CC(C)(C)c1cc(S(=O)(=O)CCc2ccccn2)cc(C(C)(C)C)c1F | 3.6 µM
O=C(CCl)Nc1cccc(-c2cnc3ccccc3n2)c1 | 6.64 µM (inactive)
CCCc1nc2oc(C(=O)c3ccccc3)c(N)c2c2c1COC(C)(C)C2 | > 10 µM (inactive)
O=C1c2ccccc2C(=O)c2c1oc(C(F)(F)F)c2C(=O)c1ccccc1 | 9.61 µM (inactive)
CSC(SC)=C(C#N)C(=O)c1ccccc1 | > 10 µM (inactive)
CCOC(=O)/C(=C\c1ccc(OC(F)F)cc1)C1=Nn2c(nnc2-c2ccc(Cl)cc2)SC1 | 3.2 µM (inactive)
CCOC(=O)c1cc([N+](=O)[O-])c([N+](=O)[O-])cc1NC(C)=O | 4.24 µM
Cc1cccc(C(=O)c2cnc3ccccc3c2-c2ccccc2)c1 | > 10 µM (inactive)
Cn1c(=O)cc(SCC(=O)NCCC2=CCCCC2)c2ccc(Cl)cc21 | 5.34 µM (inactive)
Cc1ccc2sc(N(CCCN(C)C)C(=O)c3nc4ccccc4s3)nc2c1C | 9.48 µM (inactive)
O=[N+]([O-])c1ccc(/C=N/N=C/c2ccc([N+](=O)[O-])o2)o1 | 1.78 µM
CCCCCCn1c(=O)c(C(=O)Nc2cnccn2)c(O)c2ccccc21 | 2.64 µM
CN1/C(=C/C(=O)c2nc(S(C)(=O)=O)ncc2Cl)C(C)(C)c2ccccc21 | < 0.16 µM
CC(C)NC(=O)c1ccccc1NC(=O)/C=C/c1cccc([N+](=O)[O-])c1 | 5.83 µM (inactive)
O=C1C=CC(O)(c2cc(=O)c3c(O)cc(O)cc3o2)C=C1 | 2.58 µM
Cc1nnc(NC(=O)c2sc3nc(-c4cccs4)cc(C(F)(F)F)c3c2N)s1 | 5.97 µM (inactive)
CCCCCCn1c(SCCC)nc2c1c(=O)[nH]c(=O)n2C | 5.41 µM
CC[C@@H]1CC=C[C@H]2[C@H]1C(=O)N(Cc1ccccc1)[C@H]2c1ccoc1 | 9.62 µM (inactive)
O=Cc1s/c(=N\S(=O)(=O)c2ccccc2)n(CCCCl)c1Cl | 5.89 µM (inactive)
Nc1c(C(=O)Nc2ccccc2F)sc2nc(-c3cccnc3)ccc12 | > 10 µM (inactive)
O=C(CSC1c2ccccc2-c2ccccc21)N/N=C/c1ccccc1O | > 10 µM (inactive)
CCOc1ccc(/C=N/NC(=O)c2cc(-c3ccco3)nc3ccccc23)cc1 | 5.15 µM (inactive)
Cc1ccc(NC(=O)CSc2nc3ccccc3c3nc(CCc4c(C)n[nH]c4C)nn23)cc1F | 9.71 µM (inactive)
O=C(Nc1ccc(Br)c(C(F)(F)F)c1)c1ccc(C(F)(F)F)cc1 | 9.82 µM (inactive)
